Assay results reported in patent US10206399B2, “Herbicidal composition comprising uracil compound as active ingredient” (Dongbu Farm Hannong Co., Ltd., priority 2012, dated 2019).
Read-outs that look alike come from different tables or passages of the source.

How the values were obtained:
Digitaria sanguinalis [1] = assay: Dry field farming herbicidal composition test, plant mortality; type: in vivo
Text: (§1) X is % damage by uracil compound (a) of formula 1 at the rate of application of p kg/ha; Y is % damage by conventional herbicidal compound (b) at the rate of application of q kg/ha; and E is the expected damage caused by compounds (a) and (b) at a rate of application of p and q kg/ha.
(§2) The expected activity for a given combination of two herbicides can be calculated using equation 1 above.

Aeschynomene indica [2] = assay: as above; type: in vivo
Text: as §1, §2

Abutilon theophrasti [3] = assay: as above; type: in vivo
Text: as §1, §2

Echinochloa crus [4] = assay: as above; type: in vivo
Text: as §1, §2

Echinochloa crus [5] = system: Echinochloa crus
Text: as §1, §2

Digitaria sanguinalis [6] = system: Digitaria sanguinalis
Text: as §1, §2

Xanthium spinosum = assay: whole plant or invertebrate
Text: as §1, §2

Aeschynomene indica [7] = assay: whole plant or invertebrate
Text: as §1, §2

Abutilon theophrasti [8] = assay: whole plant or invertebrate
Text: as §1, §2

[9] = Digitaria sanguinalis, read-out: Digitaria sanguinalis mortality, measured value
[10] = Aeschynomene indica, read-out: Aeschynomene indica mortality, measured value
[11] = Abutilon theophrasti, read-out: Abutilon theophrasti mortality, measured value
[12] = Echinochloa, read-out: Echinochloa crus mortality, measured value

## COc1nc(C)nc(NC(=O)NS(=O)(=O)c2cc(I)ccc2C(=O)O)n1 [Iodosulfuron]
Digitaria sanguinalis [1]; [9]
  pest or weed control at 1.25 g/ha: 12%
  pest or weed control at 5 g/ha: 56%
Aeschynomene indica [2]; [10]
  pest or weed control at 1.25 g/ha: 12%
  pest or weed control at 5 g/ha: 47%
Abutilon theophrasti [3]; [11]
  pest or weed control at 1.25 g/ha: 13%
  pest or weed control at 5 g/ha: 61%
Echinochloa crus [4]; [12]
  pest or weed control at 1.25 g/ha: 7%
  pest or weed control at 5 g/ha: 58%
corn; 1.25 g/ha
  Corn mortality, measured value: 0
corn; 5 g/ha
  Corn mortality, measured value: 1

## CS(=O)(=O)c1cc(C(F)(F)F)ccc1C(=O)c1cnoc1C1CC1 [Isoxaflutole]
Digitaria sanguinalis [1]; [9]
  pest or weed control at 12.5 g/ha: 10%
  pest or weed control at 25 g/ha: 24%
  pest or weed control at 50 g/ha: 53%
Aeschynomene indica [2]; [10]
  pest or weed control at 12.5 g/ha: 9%
  pest or weed control at 25 g/ha: 28%
  pest or weed control at 50 g/ha: 56%
Abutilon theophrasti [3]; [11]
  pest or weed control at 12.5 g/ha: 12%
  pest or weed control at 25 g/ha: 31%
  pest or weed control at 50 g/ha: 62%
Echinochloa crus [4]; [12]
  pest or weed control at 12.5 g/ha: 14%
  pest or weed control at 25 g/ha: 29%
  pest or weed control at 50 g/ha: 61%
corn; 12.5 g/ha
  Corn mortality, measured value: 0
corn; 25 g/ha
  Corn mortality, measured value: 0
corn; 50 g/ha
  Corn mortality, measured value: 0

## CS(=O)(=O)c1ccc(C(=O)C2C(=O)CCCC2=O)c([N+](=O)[O-])c1 [Mesotrione]
Digitaria sanguinalis [1]; 15 g/ha
  Digitaria sanguinalis mortality, measured value: 0
Digitaria sanguinalis [1]; 30 g/ha
  Digitaria sanguinalis mortality, measured value: 5
Digitaria sanguinalis [1]; 60 g/ha
  Digitaria sanguinalis mortality, measured value: 10
Digitaria sanguinalis [1]; [9]
  pest or weed control at 15 g/ha: 0%
  pest or weed control at 30 g/ha: 5%
  pest or weed control at 60 g/ha: 10%
Aeschynomene indica [2]; 15 g/ha
  Aeschynomene indica mortality, measured value: 11
Aeschynomene indica [2]; 30 g/ha
  Aeschynomene indica mortality, measured value: 27
Aeschynomene indica [2]; 60 g/ha
  Aeschynomene indica mortality, measured value: 54
Aeschynomene indica [2]; [10]
  pest or weed control at 15 g/ha: 11%
  pest or weed control at 30 g/ha: 27%
  pest or weed control at 60 g/ha: 54%
Abutilon theophrasti [3]; 15 g/ha
  Abutilon theophrasti mortality, measured value: 15
Abutilon theophrasti [3]; 30 g/ha
  Abutilon theophrasti mortality, measured value: 29
Abutilon theophrasti [3]; 60 g/ha
  Abutilon theophrasti mortality, measured value: 58
Abutilon theophrasti [3]; [11]
  pest or weed control at 15 g/ha: 15%
  pest or weed control at 30 g/ha: 29%
  pest or weed control at 60 g/ha: 58%
Echinochloa crus [4]; 15 g/ha
  Echinochloa crus mortality, measured value: 0
Echinochloa crus [4]; 30 g/ha
  Echinochloa crus mortality, measured value: 5
Echinochloa crus [4]; 60 g/ha
  Echinochloa crus mortality, measured value: 15
Echinochloa crus [4]; [12]
  pest or weed control at 15 g/ha: 0%
  pest or weed control at 30 g/ha: 5%
  pest or weed control at 60 g/ha: 15%
corn; 15 g/ha
  Corn mortality (measured value): 0
  Corn mortality, measured value: 0
corn; 30 g/ha
  Corn mortality (measured value): 0
  Corn mortality, measured value: 0
corn; 60 g/ha
  Corn mortality (measured value): 1
  Corn mortality, measured value: 1

## COc1cc(OC)nc(NC(=O)NS(=O)(=O)c2ncccc2C(=O)N(C)C)n1 [Nicosulfuron]
Digitaria sanguinalis [1]; [9]
  pest or weed control at 5 g/ha: 7%
  pest or weed control at 10 g/ha: 24%
  pest or weed control at 20 g/ha: 50%
Aeschynomene indica [2]; [10]
  pest or weed control at 5 g/ha: 11%
  pest or weed control at 10 g/ha: 30%
  pest or weed control at 20 g/ha: 65%
Abutilon theophrasti [3]; [11]
  pest or weed control at 5 g/ha: 8%
  pest or weed control at 10 g/ha: 26%
  pest or weed control at 20 g/ha: 62%
Echinochloa crus [4]; [12]
  pest or weed control at 5 g/ha: 10%
  pest or weed control at 10 g/ha: 24%
  pest or weed control at 20 g/ha: 50%
corn; 5 g/ha
  Corn mortality, measured value: 0
corn; 10 g/ha
  Corn mortality, measured value: 0
corn; 20 g/ha
  Corn mortality, measured value: 0

## Cc1nn(-c2cc(NS(C)(=O)=O)c(Cl)cc2Cl)c(=O)n1C(F)F [Sulfentrazone]
Digitaria sanguinalis [1]; [9]
  pest or weed control at 75 g/ha: 0%
  pest or weed control at 150 g/ha: 10%
  pest or weed control at 300 g/ha: 28%
Aeschynomene indica [2]; [10]
  pest or weed control at 75 g/ha: 7%
  pest or weed control at 150 g/ha: 25%
  pest or weed control at 300 g/ha: 53%
Abutilon theophrasti [3]; [11]
  pest or weed control at 75 g/ha: 12%
  pest or weed control at 150 g/ha: 25%
  pest or weed control at 300 g/ha: 56%
Echinochloa crus [4]; [12]
  pest or weed control at 75 g/ha: 0%
  pest or weed control at 150 g/ha: 5%
  pest or weed control at 300 g/ha: 20%
corn; 75 g/ha
  Corn mortality, measured value: 0
corn; 150 g/ha
  Corn mortality, measured value: 0
corn; 300 g/ha
  Corn mortality, measured value: 1

## CCO/N=C(\CC)C1=C(O)CC(c2c(C)cc(C)cc2C)CC1=O (stereo not shown) [Tralkoxydim]
Echinochloa crus [5]; 25 g/ha
  Data (measured value) Echinochloa crus: 10
Echinochloa crus [5]; 50 g/ha
  Data (measured value) Echinochloa crus: 24
Echinochloa crus [5]; 100 g/ha
  Data (measured value) Echinochloa crus: 56
Digitaria sanguinalis [6]; 25 g/ha
  Data (measured value) Digitaria sanguinalis: 8
Digitaria sanguinalis [6]; 50 g/ha
  Data (measured value) Digitaria sanguinalis: 21
Digitaria sanguinalis [6]; 100 g/ha
  Data (measured value) Digitaria sanguinalis: 47
Xanthium spinosum; read-out: Data (measured value) Xanthium spinosum, 25 g/ha
  pest or weed control at 25 g/ha: 0%
Xanthium spinosum; read-out: Data (measured value) Xanthium spinosum, 50 g/ha
  pest or weed control at 50 g/ha: 0%
Xanthium spinosum; read-out: Data (measured value) Xanthium spinosum, 100 g/ha
  pest or weed control at 100 g/ha: 0%
Aeschynomene indica [7]; read-out: Data (measured value) Aeschynomene indica, 25 g/ha
  pest or weed control at 25 g/ha: 0%
Aeschynomene indica [7]; read-out: Data (measured value) Aeschynomene indica, 50 g/ha
  pest or weed control at 50 g/ha: 0%
Aeschynomene indica [7]; read-out: Data (measured value) Aeschynomene indica, 100 g/ha
  pest or weed control at 100 g/ha: 0%
Abutilon theophrasti [8]; read-out: Data (measured value) Abutilon theophrasti, 25 g/ha
  pest or weed control at 25 g/ha: 0%
Abutilon theophrasti [8]; read-out: Data (measured value) Abutilon theophrasti, 50 g/ha
  pest or weed control at 50 g/ha: 0%
Abutilon theophrasti [8]; read-out: Data (measured value) Abutilon theophrasti, 100 g/ha
  pest or weed control at 100 g/ha: 0%

## O=C(O)COc1nc(Cl)c(Cl)cc1Cl [Triclopyr]
Echinochloa crus [5]; 125 g/ha
  Data (measured value) Echinochloa crus: 0
Echinochloa crus [5]; 250 g/ha
  Data (measured value) Echinochloa crus: 0
Echinochloa crus [5]; 500 g/ha
  Data (measured value) Echinochloa crus: 0
Digitaria sanguinalis [6]; 125 g/ha
  Data (measured value) Digitaria sanguinalis: 0
Digitaria sanguinalis [6]; 250 g/ha
  Data (measured value) Digitaria sanguinalis: 0
Digitaria sanguinalis [6]; 500 g/ha
  Data (measured value) Digitaria sanguinalis: 0
Xanthium spinosum; read-out: Data (measured value) Xanthium spinosum, 125 g/ha
  pest or weed control at 125 g/ha: 13%
Xanthium spinosum; read-out: Data (measured value) Xanthium spinosum, 250 g/ha
  pest or weed control at 250 g/ha: 30%
Xanthium spinosum; read-out: Data (measured value) Xanthium spinosum, 500 g/ha
  pest or weed control at 500 g/ha: 59%
Aeschynomene indica [7]; read-out: Data (measured value) Aeschynomene indica, 125 g/ha
  pest or weed control at 125 g/ha: 9%
Aeschynomene indica [7]; read-out: Data (measured value) Aeschynomene indica, 250 g/ha
  pest or weed control at 250 g/ha: 26%
Aeschynomene indica [7]; read-out: Data (measured value) Aeschynomene indica, 500 g/ha
  pest or weed control at 500 g/ha: 58%
Abutilon theophrasti [8]; read-out: Data (measured value) Abutilon theophrasti, 125 g/ha
  pest or weed control at 125 g/ha: 11%
Abutilon theophrasti [8]; read-out: Data (measured value) Abutilon theophrasti, 250 g/ha
  pest or weed control at 250 g/ha: 23%
Abutilon theophrasti [8]; read-out: Data (measured value) Abutilon theophrasti, 500 g/ha
  pest or weed control at 500 g/ha: 54%
